The target of data set [1] is T1, Tryptase purified from the human lungs.
T1 construct: Tryptase was purified from the human lungs in accordance with the method of T. J. Smithetal. described in J. Biol. Chem., 259, 11046 (1984)
Nature of the data set: Tryptase inhibitory activity (Boc-Phe-Ser-Arg-MCA fluorescence). To be noted: human lung tryptase, pH 7.5, 37° C., 5 minutes incubation, substrate Boc-Phe-Ser-Arg-MCA. The class given is biochemical. The protocol:
Tryptase was purified from the human lungs in accordance with the method of T. J. Smithetal. described in J. Biol. Chem., 259, 11046 (1984). The enzyme purified in the concentration of 25.7 U/ml was diluted 10 times with 100 mM Tris/hydrochloride buffer (pH 7.5) at use. The enzyme solution prepared above (5 μl) was mixed with 100 mM Tris/hydrochloride buffer (pH 7.5, 500 μl) and the aqueous solution of the subject compound in various concentrations or water (5 μl), and the resulting mixture was incubated at 37° C. for 5 minutes. To the reaction mixture was added 20 mM Boc-Phe-Ser-Arg-MCA (2.5 μl), and elevation in fluorescence for a minute was determined at Ex=370 nm, Em=460 nm. The elevation in fluorescence in the absence of the subject compound was defined as 100% to obtain the percentage (%) in the existence of the sample compound and calculate the value of IC50.

Data set [2] deals with T2, trypsin (derived from bovine pancreas) (Bos taurus, UniProt P00760).
T2 construct: trypsin (derived from bovine pancreas); from tissue; host or cells: bovine pancreas
T2 sequence (P00760 24-246): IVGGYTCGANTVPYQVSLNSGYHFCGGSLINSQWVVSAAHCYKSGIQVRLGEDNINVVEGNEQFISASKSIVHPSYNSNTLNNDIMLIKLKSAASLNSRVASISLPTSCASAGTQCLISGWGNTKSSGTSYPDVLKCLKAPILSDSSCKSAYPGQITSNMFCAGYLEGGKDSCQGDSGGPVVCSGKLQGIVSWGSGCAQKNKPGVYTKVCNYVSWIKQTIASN
In words: Trypsin inhibitory activity (BAPNA absorbance). The class given is biochemical. To be noted: substrate BAPNA, pH 8.0, 30° C. The procedure: To 0.2 M HEPES/sodium hydroxide buffer (pH 8.0, 100 μl) and distilled water (640 μl) were added the subject compound in various concentrations or water (10 μl) and a 80 mU/ml trypsin (derived from bovine pancreas) solution (50 μl), and the resulting mixture was allowed to preincubation at 30° C. for a minute. To the resulting reaction mixture, 2.5 mM BAPNA (200 μl) was added, incubation was made at 30° C., and the absorbance at 405 nm was determined. The absorbance in the absence of the subject compound was defined as 100% to obtain the percentage (%) in the existence of the sample compound and calculate the value of IC50.

Data set [3] addresses T3, PLA2 (derived from pig pancreas) (Sus scrofa, UniProt P00592).
T3 construct: PLA2 (derived from pig pancreas); from tissue; host or cells: pig pancreas
In words: PLA2 inhibitory activity (10PY-PC fluorescence). The class given is biochemical. To be noted: pig pancreas PLA2, substrate 10PY-PC, pH 7.5. The procedure: A reaction mixture was prepared which contained 50 mM Tris/hydrochloride buffer (pH 7.5, 874 μl: 100 mM sodium chloride and 1 mM EDTA contained), 1 M calcium chloride (6 μl), 1% bovine serum albumin (10 μl) and 2.5 mM 10PY-PC (10 μl). To the reaction mixture were added the subject compound in various concentrations or water (50 μl) and a 10 mU/ml PLA2 (derived from pig pancreas) solution (50 μl), and the intensity of fluorescence was determined at Ex=345 nm and Em=396 nm. The intensity of fluorescence in the absence of the subject compound was defined as 100% to obtain the percentage (%) In the existence of the sample compound and calculate the value of IC50.

The test system of data set [4] is carbon tetrachloride-induced rat chronic hepatopathy. In words: Effect on carbon tetrachloride-induced rat chronic hepatopathy. The class given is in vivo. To be noted: 3 mg/kg oral once a day for 8 weeks starting 5 weeks after carbon tetrachloride, liver taken at 12 weeks. The protocol:
Carbon tetrachloride (1.5 mg/kg) was repeatedly given to rats by subctaneous administration twice a week for 12 weeks to induce impairment. The liver was taken out 12 weeks after inducing, the effect on hepatic fibrogenesis was evaluated using the hepatic […] content as the indication. The aqueous solution of the subject compound in concentration of 3 mg/kg was repeatedly given by oral administeration once a day for 8 weeks, initially administered 5 weeks after the administration of carbon tetrachloride.

A short description of data set [5]: Toxicity (LD50, intravenous, male mice). To be noted: mouse, in vivo, intravenously administered to male mice. From the text:
Extremely low toxicity has been confirmed in each of the active ingredients and nontoxic salts and nontoxic acid addition salts thereof encompassed in the present invention. […] Accordingly, any of the active substances encompassed in the present invention can be considered to be adequately safe and suitable for use as pharmaceuticals.

Data set [6] concerns bleomycin-induced rat pulmonary fibrosis. Nature of the data set: Effect on bleomycin-induced rat pulmonary fibrosis. The class given is in vivo. To be noted: 10 mg/kg oral once a day for 14 days, lungs taken 15 days after bleomycin. The protocol: Under anesthetization with pentobarbital, bleomycin hydrochloride (0.9 mg/0.3 ml) was given to rats by endotracheal administration to induce impairment. The lungs were taken out 15 days after inducing, the effect on pulmonary fibrogenesis was evaluated using the pulmonary […] content as the indication. The aqueous solution of the subject compound In concentration of 10 mg/kg was repeatedly given by oral administeration once a day for 14 days, initially administered 10 hours after the administration of bleomycin.

Structures are written as SMILES. pIC50: −log10 of the molar value. Where a name gives a salt, the structure may show the parent alone.

T3 sequence (P00592 23-146): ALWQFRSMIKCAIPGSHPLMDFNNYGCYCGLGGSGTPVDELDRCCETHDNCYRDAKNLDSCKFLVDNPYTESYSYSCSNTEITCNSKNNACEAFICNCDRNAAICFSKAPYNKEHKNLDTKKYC

Turning to `CCOC(=O)c1ccc(OC(=O)CCCCCNC(=N)N)cc1` [Methanesulfonate of compound 1, p-ethoxycarbonylphenyl 6-guanidinohexanoate], the pIC50 in data set [1] is 7.52.

With `CCOC(=O)CC(CC(=O)OCC)N(C(=O)/C(C)=C/c1ccc(C(=O)Oc2ccc(C(=N)N)cc2)cc1)C1CCCCC1` [Acetate of compound 24], the pIC50 in data set [1] is 8.94.

As to `N=C(N)Nc1ccc(C(=O)Oc2ccc(CC(=O)O)cc2)cc1` [Methanesulfonate of compound 3, p-(p-guanidinobenzoyloxy)phenylacetic acid], the pIC50 in data set [1] is 7.28.

With `C=CCN(CC(=O)OCC)C(=O)/C(C)=C/c1ccc(C(=O)Oc2ccc(NC(=N)N)cc2)cc1` [Acetate of compound 13, p-(p-Guanidinophenoxycarbonyl)-α-methylcinnamic Acid N-allyl-N-ethoxycarbonylmethylamide Acetate], the pIC50 in data set [1] was 8.30; in data set [2], 6.80.

For `CCOC(=O)CCN(CCCOC)C(=O)/C(C)=C/c1ccc(C(=O)Oc2ccc(C(=N)N)cc2)cc1` [Hydrochloride of compound 25, p-(p-amidinophenoxycarbonyl)-α-methylcinnamic acid N-2-ethoxycarbonylethyl-N-3-methoxypropylamide], in data set [1], the pIC50 is 8.86.

Molecule `CCOC(=O)CN(C(=O)/C=C/c1ccc(C(=O)Oc2ccc(NC(=N)N)cc2)cc1)c1ccccc1` [Hydrochloride of compound 5, p-(p-Guanidinophenoxycarbonyl)cinnamic Acid N-phenyl-N-ethoxycarbonylmethylamide Hydrochloride] gave a pIC50 in data set [3] of 5.10.

`CCCCCCN(CC(=O)OCC)C(=O)/C(C)=C/c1ccc(C(=O)Oc2ccc(C(=N)N)cc2)cc1` [Acetate of compound 22, p-(p-amidlnophenoxycarbonyl)-α-methylcinnamic acid N-ethoxycarbonylmethyl-N-hexylamide]: in data set [1], the negative logarithm of the IC50 (pIC50) was 9.62.

For `C=CCN(CC(=O)OCC)C(=O)/C(C)=C/c1ccc(C(=O)Oc2ccc(C(=N)N)cc2C(=O)OC)cc1` [Acetate of compound 23, p-(4-amidino-2-methoxycarbonylphenoxycarbonyl)-α-methylcinnamic acid N-allyl-N-ethoxycarbonylmethylamide], in data set [1], the pIC50 was 9.34.

With `N=C(N)Nc1ccc(OC(=O)c2cccc(S(N)(=O)=O)c2)cc1` [Methanesulfonate of compound 15, m-(p-guanidinophenoxycarbonyl)benzenesulfonamide], in data set [1], the pIC50 was 6.72.

Turning to `CCOC(=O)C1CCCCN1C(=O)/C=C/c1ccc(C(=O)Oc2ccc(NC(=N)N)cc2)cc1` (stereo not shown) [Acetate of compound 7, p-(p-Guanidinophenoxycarbonyl)cinnamic Acid N-(2-ethoxcarbonyl)piperidlnylamide acetate], the pIC50 in data set [2] is 6.74.

Regarding `CCOC(=O)CN(C(=O)/C(C)=C/c1ccc(C(=O)Oc2ccc(NC(=N)N)cc2)cc1)c1ccccc1` [Hydrochloride of compound 6, p-(p-Guanidinophenoxycarbony) -α-methylcinnamic Acid N-phenyl-N-ethoxycarbonylmethylamide Hydrochloride], the pIC50 in data set [3] is 5.30; in data set [2], 6.96.

Consider `CN(C)C(=O)COC(=O)Cc1ccc(OC(=O)c2ccc(NC(=N)N)cc2)cc1` [Methanesulfonate of compound 2, N,N-ddimethylcarbamoylmethyl p-(p-guanidinobenzoyloxy)phenylacetate], for which, in data set [1], the pIC50 was 8.36.

As to `N=C(N)c1ccc(OC(=O)c2ccc(/C=C/C(=O)N3CCN(Cc4ccccc4)CC3)cc2)cc1` [Hydrochloride of compound 19-2, p-(p-amidinophenoxycarbonyl)cinnamic acid N-(4-phenyl-methyl)piperadinylamide], the pIC50 in data set [1] was 9.68.

`CCOC(=O)CN(C(=O)c1ccc(C(=O)Oc2ccc(NC(=N)N)cc2)cc1)c1ccccc1` [Methanesulfonate of compound 14, p-(p-guanidinophenoxycarbonyl)benzoic acid N-phenyl-N-ethoxycarbonylmethylamide]: the pIC50 in data set [1] is 7.95.

Turning to `C#CCN(CC(=O)OCC)C(=O)/C(C)=C/c1ccc(C(=O)Oc2ccc(C(=N)N)cc2)cc1` [Acetate of compound 18, p-(p-amidinophenoxycarbonyl)-α-methylcinnamic acid N-propargyl-N-ethoxycarbonylmethylamide], in data set [1], the pIC50 is 8.62.

The molecule `C=CCN(CC(=O)OCC)C(=O)/C(C)=C/c1ccc(C(=O)Oc2ccc(C(=N)N)cc2)cc1` [Methanesulfonate of compound 16, p-(p-amidinophenoxycarbonyl)-α-methylcinnamic acid N-allyl-N-ethoxycarbonylmethylamide] had a pIC50 in data set [1] of 8.85. In data set [4], the “Amount of hepatic Hydroxypurine” value amounted to 896.5 ± 686.7 μg/liver and the “Inhibition ratio (hepatic hydroxypurine)” value was 58.1%. The molecule also had an LD50 in data set [5] of 117 mg/kg.

Take `C=CCN(CC(=O)O)C(=O)/C(C)=C/c1ccc(C(=O)Oc2ccc(C(=N)N)cc2)cc1` [Methanesulfonate of compound 17, p-(p-amidinophenoxycarbonyl)-α-methylcinnamic acid N-allyl-N-carboxylmethylamide]: the pIC50 in data set [1] was 7.90. Further, in data set [6], the “Amount of pulmonary Hydroxypurine” value is reported as 3.774 ± 0.504 μg/lung and the “Inhibition ratio (pulmonary hydroxypurine)” value is 40.6%.

Consider `CCOC(=O)[C@@H]1CCCN1C(=O)/C=C/c1ccc(C(=O)Oc2ccc(NC(=N)N)cc2)cc1` [Acetate of compound 10, p-(p-Guanidinophenoxycarbonyl)cinnamic Acid N-(2-(S)-ethoxycarbonyl)pyrrolidinylamide Acetate], for which, in data set [2], the pIC50 was 6.74.

The pIC50 is the IC50 on a negative log10 scale, so that one unit is a factor of ten. A high value points to a low IC50. In general, LD50 refers to the dose expected to kill half of the subjects tested.

The values are drawn from patent US6388122B1, “Tryptase inhibitor and novel guanidino derivatives” (Ono Pharmaceutical Co., Ltd., priority 1996, dated 2002).
